In assay [1] the target is T1, Testicular bovine hyaluronidase (Bos taurus, UniProt Q2YDK3).
T1 construct: Testicular bovine hyaluronidase (Sigma Chemical Company); purchased Sigma Chemical Company; host or cells: bovine testes
T1 sequence (Q2YDK3 36-553): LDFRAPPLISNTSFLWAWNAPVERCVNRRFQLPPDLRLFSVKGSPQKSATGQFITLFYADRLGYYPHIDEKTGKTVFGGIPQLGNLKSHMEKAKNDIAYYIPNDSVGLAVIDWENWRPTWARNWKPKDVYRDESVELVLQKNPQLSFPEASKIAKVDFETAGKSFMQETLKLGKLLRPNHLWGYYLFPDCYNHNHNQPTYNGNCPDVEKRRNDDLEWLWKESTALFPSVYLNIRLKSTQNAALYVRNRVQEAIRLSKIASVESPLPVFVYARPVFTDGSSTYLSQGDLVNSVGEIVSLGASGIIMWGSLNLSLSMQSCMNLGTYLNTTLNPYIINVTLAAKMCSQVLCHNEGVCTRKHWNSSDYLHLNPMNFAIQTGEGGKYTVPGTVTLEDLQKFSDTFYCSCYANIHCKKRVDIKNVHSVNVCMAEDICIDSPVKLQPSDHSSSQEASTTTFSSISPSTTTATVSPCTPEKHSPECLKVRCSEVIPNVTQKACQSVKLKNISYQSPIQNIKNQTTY
Put plainly: Hyaluronidase inhibition in vitro (chondroitin sulfate agar plate). Type of assay: biochemical. The procedure: The inhibition of hyaluronidase was assessed using chondroitin sulfate as the enzyme substrate according to the following procedure. Agar plates containing chondroitin sulfate (0.1 percent) were prepared by the following method: water solutions of I percent agarose, 2 M sodium chloride (0.1 vol.), 1 M sodium acetate (pH 5.0, 0.1 vol), and sodium azide (0.5 mg/ml, 0.1 vol.) qe mixed and the mixture is brought to the boiling temperature. After cooling to about 65° C., a solution of chondroitin sulfate (10 mgtml, 0.1 vol.) is added. After cooling to about 45° C., the resulting mixture (20 ml) is poured onto a petri dish. The plates are allowed to cool to room temperature. A well 2 mm in diameter is then cut in the agar surface. […] A control using only the buffer solution without added test compound is also run. The plates are then incubated overnight (about 16 hours) at 37° C. The zones of hydrolysis of chondroitin sulfate by hyaluronidase are visualized by flooding the plate with 10 percent cetyl trimethyl ammonium bromide. The area of the zone is logarithmically proportional to the concentration of hyaluronidase. Inhibitor activity is determined by comparing the area of hydrolysis from the test compound to the area of hydrolysis from the control. The results are expressed as percent inhibition calculated as follows: [formula]

In assay [2] the target is T2, Acrosin (purified from boar sperm) (Sus scrofa, UniProt P08001).
T2 construct: Acrosin (200 μl, purified from boar sperm); from tissue; host or cells: boar sperm
T2 sequence (P08001 17-415): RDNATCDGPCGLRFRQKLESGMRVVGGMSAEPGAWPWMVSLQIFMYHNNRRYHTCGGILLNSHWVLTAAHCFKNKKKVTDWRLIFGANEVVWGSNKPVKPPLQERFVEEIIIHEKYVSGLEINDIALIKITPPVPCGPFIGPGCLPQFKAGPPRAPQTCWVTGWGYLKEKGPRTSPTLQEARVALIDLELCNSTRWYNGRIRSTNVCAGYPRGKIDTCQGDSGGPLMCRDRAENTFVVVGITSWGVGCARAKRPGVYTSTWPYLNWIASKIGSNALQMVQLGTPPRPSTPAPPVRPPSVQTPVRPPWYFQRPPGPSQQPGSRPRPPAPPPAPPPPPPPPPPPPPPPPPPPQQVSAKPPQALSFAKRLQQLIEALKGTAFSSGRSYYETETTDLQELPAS
Put plainly: Acrosin inhibition in vitro (BAPNA substrate). Type of assay: biochemical. The conditions noted are these: for Inhibition (units/mg): Other salts ROSO3M, Conc. of Test Sol. 10 mg/ml. Here is the method:
The inhibition of acrosin is assessed in vitro using benzoyl arginine p-nitroanilide (BAPNA) as the enzyme substrate according to the following procedure. Acrosin (200 μl, purified from boar sperm) and a solution of the test compound (200 μl, 10 mg/ml., or 50 μl, 1 mg/ml) in 0.05 M triethanolamine buffer, pH 7.8, are incubated at room temperature for 5 minutes. A control using the buffer solution without the test compound added is also run. A 200 μl-sample of the incubation mixture is then withdrawn and is added to a cuvettecontaining BAPNA (1 ml) and triethanolamine buffer (2 ml). The mixture is stirred and placed in a Gilford recording spectrophotometer. The increase in optical density at 383 mn is measured. One unit of acrosin activity is defined as the amount of acrosin which will cause an increase in optical density at 383 mn of 0.001/minute. One unit of inhibitory activity is defined as the amount of inhibitor which will cause a reduction in the increase in optical density at 383 nm of 0.001/minute.

Assay [3] deals with Dutch Belted male rabbits of proven fertility. Description: Antifertility effects in vivo, oral dosing of male rabbits. More on the design: species or system rabbit. The conditions noted are these: administered to male rabbits, procedures of Example 4.
Experimental: The animals (of proven fertility) are then bred and the genital system of the females is examined to determine the number of embryos.
Dutch Belted male rabbits of proven fertility were randomly selected. They were given 10 mg/kg tetradecyl sodium sulfate suspended in Ca++ free Ringer's solution by gavage. Control animals were given Ca++ free Ringer's solution by gavage. The male rabbits were dosed each day for 3 days and they were bred to females 2 hours after dosing and again 8 hours after dosing. The female rabbits were then given 100 IU human chorionic gonadotrophin (HCG) to stimulate ovulation. Twenty four hours after the last dose of tetradecyl sodium sulfate the male rabbits were bred and the females treated as before. After twelve days the female rabbits were sacrificed and examined for embryos.
[4] abbreviates: Other salts ROSO3M, Conc. of Test Sol. 10 (mg/ul).
[5] abbreviates: Conc. of Test Solution 10 Mg/ml.

Results on 31 compounds are retold here after patent publication US20020164368A1, “Male contraceptive method and composition” (priority 2000, published 2002).

With `CCCCCCCCCCCCCCCCCCCCCCCCOS(=O)(=O)O` [n-tetracosyl], the “% Inhibition” value in assay [1] (Conc. of Test Solution 1 Mg/ml) is 0%.
Take `CCCCCCCC/C=C\CCCCCCCCOS(=O)(=O)O` [oleyl]: the “% Inhibition” value in assay [1] (Conc. of Test Solution 1 Mg/ml) was 0%.
With `O=S(=O)([O-])Oc1c[nH]c2ccccc12.[Na+]` [Compound 29], the “acrosin inhibition activity (in words)” value in assay [2] is listed as “The following compounds have also been found to have acrosin inhibition”.
`CCCCCCCCCCCCOS(=O)(=O)O.OCCNCCO` [CH3(CH2)11— diethanol-ammonium]: the “Inhibition (units/mg)” value in assay [2] is 90,000 units/mg. Besides, the “% Inhibition” value in assay [1] (setting [4]) is 100%.
As to `CCCCCCCCCCCCOS(=O)(=O)O.OCCN(CCO)CCO` [CH3(CH2)11— triethanol-ammonium], the “Inhibition (units/mg)” value in assay [2] was 90,000 units/mg. In addition, the “% Inhibition” value in assay [1] (setting [4]) came to 100%.
As for `CCCC/C=C\CCCCCCCCOS(=O)(=O)O` [myristoleyl], in assay [1] (Conc. of Test Solution 1 Mg/ml), the “% Inhibition” value was found to be 13%.
In the case of `CC(C)CCCC(C)CCCC(C)CCOS(=O)(=O)[O-].[Na+]` (stereo not shown) [3,7,11-trimethyldodecyl], the “% Inhibition” value in assay [1] (Conc. of Test Solution 1 Mg/ml) is given as 39%.
Take “a ethyl a sulfodocosanoate [Compound 31]”: the “activity as male contraceptives” value in assay [3] is “activity as male contraceptives”.
With `CCCCCCCCC(CCCCC)OS(=O)(=O)O` (stereo not shown) [Compound 6-tetradecyl], the “% Inhibition” value in assay [1] (Conc. of Test Solution 1 Mg/ml) is 12%.
Regarding `CCCCCCCCCCCCCCCCCCOS(=O)(=O)O` [n-octadecyl], the “% Inhibition” value in assay [1] (setting [5]) came to 30%.
Consider `CCCCCCCCCCCCCCCCCOS(=O)(=O)O` [n-heptadecyl], for which the “% Inhibition” value in assay [1] (setting [5]) was found to be 23%.
With `CC(C)CCCCCCCCCCCOS(=O)(=O)O` [12-methyltridecyl], the “% Inhibition” value in assay [1] (Conc. of Test Solution 1 Mg/ml) was 7%.
For the compound `CCCCCCCCCCC(CCC)OS(=O)(=O)[O-].[Na+]` (stereo not shown) [Compound 4-tetradecyl], the “% Inhibition” value in assay [1] (Conc. of Test Solution 1 Mg/ml) amounted to 0%.
Same read-out and setting: next, `CCCCCCCCCCCCCCCCCCCCCCOS(=O)(=O)O` [n-docosyl]: 0%.
With `CCCCCCCCCC(CCCCCCCC)OS(=O)(=O)O` (stereo not shown) [Compound 9-octadecyl], the “% Inhibition” value in assay [1] (Conc. of Test Solution 1 Mg/ml) is reported as 7%.
Consider `CCCCCCCCCCCCCCCOS(=O)(=O)O` [n-pentadecyl], for which the “% Inhibition” value in assay [1] (setting [5]) is 60%.
As to `CCCCCCCCCCC(CCCCCCCC)COS(=O)(=O)O` (stereo not shown) [2-octyldodecyl], the “% Inhibition” value in assay [1] (Conc. of Test Solution 1 Mg/ml) amounted to 0%.
`CCCCCCCCC(CCCCCCC)OS(=O)(=O)O` (stereo not shown) [Compound 8-hexadecyl]: in assay [1] (Conc. of Test Solution 1 Mg/ml), the “% Inhibition” value is 0%.
Regarding `CCCCCCCCCCCCOS(=O)(=O)[O-].[Na+]` [n-dodecyl], in assay [2] (setting [5]), the “Inhibition (units/mg.)” value is 0 units/mg. Moreover, the “% Inhibition” value in assay [1] (setting [5]) is 71%.
Consider `CCCCCCCC(CCCCCC)OS(=O)(=O)O` (stereo not shown) [Compound 7-tetradecyl], for which the “% Inhibition” value in assay [1] (Conc. of Test Solution 1 Mg/ml) stood at 0%.
For `CCCCCCCCCCCCC(C)OS(=O)(=O)O` (stereo not shown) [Compound 2-tetradecyl], the “% Inhibition” value in assay [1] (Conc. of Test Solution 1 Mg/ml) amounted to 100%.
On to `CCCCCCCCCCCOS(=O)(=O)O` [n-hendecyl], for which the “% Inhibition” value in assay [1] (setting [5]) worked out at 100%.
As for `CCCCCCCCCC(CCCCCC)OS(=O)(=O)O` (stereo not shown) [Compound 7-hexadecyl], in assay [1] (Conc. of Test Solution 1 Mg/ml), the “% Inhibition” value worked out at 0%.
In the case of `CCCCCCCCCCCCCCCCOS(=O)(=O)O` [n-hexadecyl], the “% Inhibition” value in assay [1] (setting [5]) is reported as 75%.
As for `CC(C)CCCC(C)CCOS(=O)(=O)O` (stereo not shown) [tetrahydrogeranyl], the “% Inhibition” value in assay [1] (Conc. of Test Solution 1 Mg/ml) was 0%.
Consider `CCCCCCCCCCCCCOS(=O)(=O)O` [n-tridecyl], for which, in assay [1] (setting [5]), the “% Inhibition” value stood at 80%.
In the case of `CCCCCCCCCCCCCCCCCCCCCCCCCCCOS(=O)(=O)O` [n-heptacosyl], the “% Inhibition” value in assay [1] (Conc. of Test Solution 1 Mg/ml) was 0%.
With `CCCCCCCCCCCCCCCCCCCCOS(=O)(=O)O` [n-eicosyl], the “% Inhibition” value in assay [1] (setting [5]) is reported as 0%.
Consider `O=S(=O)([O-])Oc1ccc(OS(=O)(=O)[O-])c2ccccc12.[Na+].[Na+]` [Compound 28], for which the “acrosin inhibition activity (in words)” value in assay [2] is reported as “The following compounds have also been found to have acrosin inhibition”.
On to `CCCC/C=C/CCCCCCCCOS(=O)(=O)[O-].[Na+]` [myristeladyl], for which the “% Inhibition” value in assay [1] (Conc. of Test Solution 1 Mg/ml) was 13%.
For `CCCCC/C=C\C/C=C\CCCCCCCCOS(=O)(=O)O` [linoleyl], in assay [1] (Conc. of Test Solution 1 Mg/ml), the “% Inhibition” value turned out to be 0%.
